Reference: patent US10947237B2, “Antimicrobial compounds and methods of making and using the same” (BIOVERSYS AG, priority 2015, dated 2021)

Tests used:
[1] = system: Eschericia coli (E. Coli) strain ATCC25922; assay: standard microdilution assay, minimum inhibitory concentration (MIC); assay type: cell-based; details: Escherichia coli
Method: (§1) The in vitro activity of the compounds of the present disclosure can be determined. Antimicrobial testing is typically performed to determine the minimum inhibitory concentration (MIC). Minimum inhibitory concentrations (MICs) are determined by the microdilution method in a final volume of 100 μl according to protocols outlined by The Clinical and Laboratory Standards Institute (CLSI). Performance standards for reference strains are assessed within the same experimental design to maintain quality control. See, for example, Clinical Laboratory Standards Institute: Methods for dilution antimicrobial susceptibility tests for bacteria that grow aerobically M7-A8. Approved Standard-Eighth Edition. Wayne, Pa.: CLSI; December 2008; and Clinical Laboratory Standards Institute: Performance Standards for Antimicrobial Susceptibility Testing M100-S20; Approved Standard-Twentieth Edition. Wayne, Pa.: CLSI; June 2010. The compounds of the present disclosure were tested for antimicrobial activity. The Compounds 1-149 were run against Eschericia coli (E. Coli) strain ATCC25922 and against Staphylococcus aureus (S. aureus) 11540 strain using a standard microdilution assay to determine minimum inhibitory concentrations (MICs). […] It will be recognized by one skilled in the art that the compounds can be assessed against other bacterial organisms and that the presentation of data for activity against Eschericia coli and Staphylococcus aureus are illustrative and in no way is intended to limit the scope of the present disclosure. The compounds of the present disclosure can be assayed against a range of other microorganisms depending upon the performance activity desired to be gathered. Furthermore, the “+” and “−” representation and the selection of a cutoff value of 16 micrograms/mL is also illustrative and in no way is intended to limit the scope of the present disclosure.

[2] = system: Staphylococcus aureus (S. aureus) 11540 strain; assay: as above; assay type: cell-based
Method: as §1

SMILES	MIC ([1]; Table 2, strain ATCC25922) [µg/mL]	MIC ([2]; Table 2, 11540 strain) [µg/mL]	MIC ([1]; ATCC25922, Table 2a) [µg/mL]	MIC ([2]; Table 2a) [µg/mL]
C[C@H](N)CCCc1cc(Cl)c(F)c(-c2cc3cn(-c4ccc([C@H]5CC(CCNC(=N)N)CC(CO)O5)cc4)c(=O)nc3[nH]2)c1 (stereo partly drawn) [Compound 87]	≤ 16	≤ 16	–	–
Cc1nnc(NC[C@@H](CCNC(=N)N)NCc2ccc(-n3cc4cc(-c5cc(CCC[C@H](C)N)cc(Cl)c5F)[nH]c4nc3=O)cc2)o1 [Compound 51]	≤ 16	≤ 16	–	–
C[C@H](N)CCCc1cc(Cl)c(F)c(-c2cc3cn(-c4ccc(CN[C@@H](CCO)CCNC(=N)N)cc4)c(=O)nc3[nH]2)c1 [Compound 13]	≤ 16	≤ 16	–	–
C[C@H](N)CCCc1cc(Cl)c(F)c(-c2cc3cn(-c4ccc(CN[C@H](CCNC(=N)N)CNc5ccon5)cc4)c(=O)nc3[nH]2)c1 [Compound 33]	≤ 16	≤ 16	–	–
CC(=N)NCC[C@H]1CCC[C@H](c2ccc(-n3cc4cc(-c5cc(CCC[C@H](C)N)cc(Cl)c5F)[nH]c4nc3=O)cc2)N1 [Compound 1]	≤ 16	≤ 16	–	–
CC(=N)NCC[C@@H]1CCC[C@@H](c2ccc(-n3cc4cc(C5CCNC5)[nH]c4nc3=O)cc2)N1 (stereo partly drawn) [Compound 115]	≤ 16	≤ 16	–	–
C[C@H](NCCCNC(=N)N)c1ccc(-n2cc3cc(-c4cc([C@@H]5CC[C@H](CN)O5)cc(Cl)c4F)[nH]c3nc2=O)cc1 [Compound 149]	≤ 16	≤ 16	–	–
C[C@H](N)CCCc1cc(Cl)c(F)c(-c2cc3cn(-c4ccc(CN[C@H](CCNC(=N)N)CCc5cnc(N)s5)cc4)c(=O)nc3[nH]2)c1 [Compound 24]	≤ 16	≤ 16	–	–
C[C@H](N)CCCc1cc(Cl)c(F)c(-c2cc3cn(-c4ccc(N5CCO[C@H](CCNC(=N)N)C5)cc4)c(=O)nc3[nH]2)c1 [Compound 133]	≤ 16	≤ 16	–	–
COc1ccnc(NC[C@@H](CCNC(=N)N)NCc2ccc(-n3cc4cc(-c5cc(CCC[C@H](C)N)cc(Cl)c5F)[nH]c4nc3=O)cc2)c1 [Compound 47]	≤ 16	≤ 16	–	–
Cc1nnc(NC[C@@H](CCNC(=N)N)NCc2ccc(-n3cc4cc(-c5cc(CCC[C@H](C)N)cc(Cl)c5F)[nH]c4nc3=O)cc2)[nH]1 [Compound 55]	≤ 16	≤ 16	–	–
C[C@H](N)CCCc1cc(Cl)c(F)c(-c2cc3cn(-c4ccc(CN[C@H](CCNC(=N)N)CNc5ncns5)cc4)c(=O)nc3[nH]2)c1 [Compound 38]	≤ 16	≤ 16	–	–
CCC(=N)NCC[C@@H]1CCC[C@@H](c2ccc(-n3cc4cc(-c5cc(CCC[C@H](C)N)cc(Cl)c5F)[nH]c4nc3=O)cc2)N1 [Compound 81]	≤ 16	≤ 16	–	–
C[C@H](N)CCCc1cc(Cl)c(F)c(-c2cc3cn(-c4ccc(CN[C@H](CCNC(=N)N)CNc5cc(F)ccn5)cc4)c(=O)nc3[nH]2)c1 [Compound 91]	≤ 16	≤ 16	–	–
Cc1nc(NC[C@@H](CCNC(=N)N)NCc2ccc(-n3cc4cc(-c5cc(CCC[C@H](C)N)cc(Cl)c5F)[nH]c4nc3=O)cc2)sc1C [Compound 50]	≤ 16	≤ 16	–	–
C[C@H](N)CCCc1cc(Cl)c(F)c(-c2cc3cn(-c4ccc(CN[C@H](CCNC(=N)N)CC(N)=O)cc4)c(=O)nc3[nH]2)c1 [Compound 61]	≤ 16	≤ 16	–	–
C[C@H](N)CCCc1cc(Cl)c(F)c(-c2cc3cn(-c4ccc(CN[C@H](CCNC(=N)N)Cn5ccc(=O)[nH]c5=O)cc4)c(=O)nc3[nH]2)c1 [Compound 7]	≤ 16	≤ 16	–	–
N=C(N)NCC[C@@H]1C[C@H](Nc2nccs2)C[C@@H](c2ccc(-n3cc4cc(C5CCNC5)[nH]c4nc3=O)cc2)O1 (stereo partly drawn) [Compound 124]	> 16	> 16	–	–
C=C[C@@H](CCNC(=N)N)OCc1ccc(-n2cc3cc(CCNC4CCNCC4)[nH]c3nc2=O)cc1 [Compound 93]	> 16	> 16	–	–
C[C@H](N)CCCc1cc(Cl)c(F)c(-c2cc3cn(-c4ccc(CO[C@@H](CCNC(=N)N)CNC(=N)N)cc4)c(=O)nc3[nH]2)c1 [Compound 174]	–	–	≤ 16	≤ 16
N=C(N)NCC[C@H](CNc1ncc[nH]1)OCc1ccc(-n2cc3cc(C4CCNC4)[nH]c3nc2=O)cc1 (stereo partly drawn) [Compound 113]	≤ 16	> 16	–	–
Cc1nc(NCC[C@H]2CCC[C@H](c3ccc(-n4cc5cc(-c6cc(CCC[C@H](C)N)cc(Cl)c6F)[nH]c5nc4=O)cc3)N2)[nH]c1C [Compound 41]	≤ 16	≤ 16	–	–
O=c1nc2[nH]c(CCNC3CCNCC3)cc2cn1-c1ccc([C@@H]2CCC[C@@H](CCNc3ncc[nH]3)N2)cc1 [Compound 95]	≤ 16	≤ 16	–	–

SMILES	MIC ([1]; Table 2, strain ATCC25922) [µg/mL]	MIC ([2]; Table 2, 11540 strain) [µg/mL]	MIC ([1]; ATCC25922, Table 2a) [µg/mL]	MIC ([2]; Table 2a) [µg/mL]
C[C@H](N)CCCc1cc(Cl)c(F)c(-c2cc3cn(-c4ccc(CN[C@H](CCNC(=N)N)CNc5ccc(=O)[nH]n5)cc4)c(=O)nc3[nH]2)c1 [Compound 40]	≤ 16	≤ 16	–	–
C[C@H](N)CCCc1cc(-c2[nH]c3nc(=O)n(-c4ccc([C@H](C)NCCCNC(=N)N)cc4)cc3c2[N+](=O)[O-])c(F)c(Cl)c1[N+](=O)[O-] [Compound 110]	> 16	> 16	–	–
CC(=N)NCC[C@H](CNC(=N)N)OCc1ccc(-n2cc3cc(-c4cc(CCC[C@H](C)N)cc(Cl)c4F)[nH]c3nc2=O)cc1 [Compound 171]	–	–	≤ 16	≤ 16
CC(=O)CNCC[C@@H]1CCC[C@@H](c2ccc(-n3cc4cc(-c5cc(CCC[C@H](C)N)cc(Cl)c5F)[nH]c4nc3=O)cc2)N1 [Compound 9]	≤ 16	≤ 16	–	–
N=C(N)NCC[C@H]1CN(c2ccc(-n3cc4cc(CCNC5CCNCC5)[nH]c4nc3=O)cc2)CCO1 [Compound 144]	≤ 16	> 16	–	–
C[C@H](N)CCCc1cc(Cl)c(F)c(-c2cc3cn(-c4ccc(N5CCOC(CCNC(=N)N)C5)cc4)c(=O)nc3[nH]2)c1 (stereo partly drawn) [Compound 92]	≤ 16	≤ 16	–	–
C=C[C@@H](CCNC(=N)N)NCc1ccc(-n2cc3cc(-c4cc([C@H]5CC[C@@H](CN)O5)cc(Cl)c4F)[nH]c3nc2=O)cc1 [Compound 140]	≤ 16	≤ 16	–	–
C[C@H](N)CCCc1cc(Cl)c(F)c(-c2cc3cn(-c4ccc([C@H]5N[C@H](CCNC(=N)N)CCO5)cc4)c(=O)nc3[nH]2)c1 [Compound 31]	≤ 16	≤ 16	–	–
N=C(N)NCC[C@H](CNC(=N)N)OCc1ccc(-n2cc3cc(CCNC4CCNCC4)[nH]c3nc2=O)cc1 [Compound 114]	≤ 16	≤ 16	–	–
N=C(N)NCC[C@H]1CC(N)C[C@H](c2ccc(-n3cc4cc(CCNC5CCNCC5)[nH]c4nc3=O)cc2)O1 (stereo partly drawn) [Compound 122]	≤ 16	≤ 16	–	–
C[C@H](N)CCCc1cc(Cl)c(F)c(-c2cc3cn(-c4ccc(CO[C@H](CCNC(N)=O)CNC(=N)N)cc4)c(=O)nc3[nH]2)c1 [Compound 170]	–	–	≤ 16	≤ 16
C[C@H](N)CCCc1cc(Cl)c(F)c(-c2cc3cn(-c4ccc([C@@H]5CCC[C@@H](CNCc6cccnn6)N5)cc4)c(=O)nc3[nH]2)c1 [Compound 6]	≤ 16	≤ 16	–	–
CC(C)C(=N)NCC[C@@H]1CCC[C@@H](c2ccc(-n3cc4cc(-c5cc(CCC[C@H](C)N)cc(Cl)c5F)[nH]c4nc3=O)cc2)N1 [Compound 82]	≤ 16	≤ 16	–	–
N=C(N)NCC[C@@H]1C[C@H](CN)O[C@@H](c2ccc(-n3cc4cc(CCNC5CCNCC5)[nH]c4nc3=O)cc2)C1 [Compound 99]	≤ 16	> 16	–	–
C[C@H](N)CCCc1cc(Cl)c(F)c(-c2cc3cn(-c4ccc([C@H]5CCC[C@H](CCNC(=N)c6ccccn6)N5)cc4)c(=O)nc3[nH]2)c1 [Compound 3]	≤ 16	≤ 16	–	–
C[C@H](N)CCCc1cc(Cl)c(F)c(-c2cc3cn(-c4ccc(CN[C@H](CCNC(=N)N)CNc5cccnc5)cc4)c(=O)nc3[nH]2)c1 [Compound 54]	≤ 16	≤ 16	–	–
N=C(N)NCC[C@H](CNc1ncc[nH]1)OCc1ccc(-n2cc3cc(CCNC4CCNCC4)[nH]c3nc2=O)cc1 [Compound 104]	≤ 16	≤ 16	–	–
N=C(N)NCC[C@@H]1CN(c2ccc(-n3cc4cc(CCNC5CCNCC5)[nH]c4nc3=O)cc2)CCO1 [Compound 146]	> 16	> 16	–	–
C[C@H](N)CCCc1cc(Cl)c(F)c(-c2cc3cn(-c4ccc(CO[C@H](CCNS(C)(=O)=O)CNC(=N)N)cc4)c(=O)nc3[nH]2)c1 [Compound 167]	–	–	≤ 16	≤ 16
CC1=NCC[C@@H]2CCC[C@@H](c3ccc(-n4cc5cc(CCNC6CCNCC6)[nH]c5nc4=O)cc3)N12 [Compound 118]	> 16	> 16	–	–
C[C@H](N)CCCc1cc(Cl)c(F)c(-c2cc3cn(-c4ccc([C@@H]5CCC[C@@H](CNCc6cc[nH]c(=O)c6)N5)cc4)c(=O)nc3[nH]2)c1 [Compound 16]	≤ 16	≤ 16	–	–
CC(=N)NCC[C@@H](CN)OCc1ccc(-n2cc3cc(-c4cc(CCC[C@H](C)N)cc(Cl)c4F)[nH]c3nc2=O)cc1 [Compound 178]	–	–	≤ 16	≤ 16
